Common to all, as to conditions: 11-point 3-fold dilution, qPCR readout
For orientation: In qPCR the cycle at which signal appears reflects the starting amount.

For one test, the target named is T1, FGFR1 (Homo sapiens, UniProt P11362).
T1 construct: made in house; host or cells: E. coli host derived from BL21, infected with T7 phage
Briefly: Kinase binding assay (Kd), FGFR1. Put shortly: (§1)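 Competition binding, phage-tagged kinase vs. bead-bound ligand; 11-pt 3-fold cpd series, 0.9% DMSO final; 1 h RT shaking; eluate kinase by qPCR; Kd via Hill fit (slope −1, Levenberg–Marquardt).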

The target in a further test is T2, FGFR4 (Homo sapiens, UniProt P22455).
T2 construct: made in house; host or cells: E. coli host derived from BL21, infected with T7 phage
T2 sequence (P22455 22-802): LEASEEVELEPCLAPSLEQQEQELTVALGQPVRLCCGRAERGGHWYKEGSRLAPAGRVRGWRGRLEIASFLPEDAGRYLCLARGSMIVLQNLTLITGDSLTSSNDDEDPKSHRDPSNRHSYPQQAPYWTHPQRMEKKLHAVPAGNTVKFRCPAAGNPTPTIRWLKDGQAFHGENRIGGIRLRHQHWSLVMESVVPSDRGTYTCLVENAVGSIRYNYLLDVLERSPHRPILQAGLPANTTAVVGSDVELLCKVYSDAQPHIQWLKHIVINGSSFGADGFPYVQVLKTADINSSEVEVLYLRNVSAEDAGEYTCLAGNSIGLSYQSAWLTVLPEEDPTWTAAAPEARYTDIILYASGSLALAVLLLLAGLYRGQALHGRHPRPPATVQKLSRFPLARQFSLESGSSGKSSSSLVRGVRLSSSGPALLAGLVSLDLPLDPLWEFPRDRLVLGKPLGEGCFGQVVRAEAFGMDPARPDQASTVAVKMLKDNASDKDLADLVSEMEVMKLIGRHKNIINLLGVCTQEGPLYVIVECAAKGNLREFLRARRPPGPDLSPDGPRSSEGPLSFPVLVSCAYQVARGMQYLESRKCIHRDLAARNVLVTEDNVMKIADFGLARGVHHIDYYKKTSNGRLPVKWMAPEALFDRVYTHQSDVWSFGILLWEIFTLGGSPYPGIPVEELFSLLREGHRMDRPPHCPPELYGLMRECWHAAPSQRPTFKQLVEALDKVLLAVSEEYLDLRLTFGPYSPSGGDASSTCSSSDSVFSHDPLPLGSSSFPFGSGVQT
Briefly: Kinase binding assay (Kd), FGFR4. The method in brief: as §1

For the next test, the target named is T3, FGFR3 (Homo sapiens, UniProt P22607).
T3 construct: made in house; host or cells: E. coli host derived from BL21, infected with T7 phage
T3 sequence (P22607 23-806): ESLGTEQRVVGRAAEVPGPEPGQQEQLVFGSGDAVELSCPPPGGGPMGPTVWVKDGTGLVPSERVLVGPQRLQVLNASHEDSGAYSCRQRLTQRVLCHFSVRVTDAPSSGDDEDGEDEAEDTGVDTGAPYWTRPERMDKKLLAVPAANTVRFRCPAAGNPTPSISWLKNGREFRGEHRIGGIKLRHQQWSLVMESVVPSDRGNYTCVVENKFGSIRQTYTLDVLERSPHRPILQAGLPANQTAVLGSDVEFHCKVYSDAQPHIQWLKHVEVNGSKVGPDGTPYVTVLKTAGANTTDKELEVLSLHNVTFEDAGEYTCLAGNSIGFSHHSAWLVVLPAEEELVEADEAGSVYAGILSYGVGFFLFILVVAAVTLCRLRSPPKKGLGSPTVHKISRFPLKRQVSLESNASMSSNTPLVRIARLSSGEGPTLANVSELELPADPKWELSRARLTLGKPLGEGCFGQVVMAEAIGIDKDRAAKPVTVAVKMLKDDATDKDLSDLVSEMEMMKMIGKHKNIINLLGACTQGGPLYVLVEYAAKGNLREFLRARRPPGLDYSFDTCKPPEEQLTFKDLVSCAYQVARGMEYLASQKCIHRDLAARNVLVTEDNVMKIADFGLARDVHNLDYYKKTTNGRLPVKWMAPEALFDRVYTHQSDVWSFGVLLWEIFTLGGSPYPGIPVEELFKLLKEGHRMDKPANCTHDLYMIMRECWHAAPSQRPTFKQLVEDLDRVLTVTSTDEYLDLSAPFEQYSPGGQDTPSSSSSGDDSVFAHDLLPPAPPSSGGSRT
Description: Kinase binding assay (Kd), FGFR3. Put shortly:
as §1

In the next test the target is T4, FGFR3 (V555M) (Homo sapiens, UniProt P22607, V555M).
T4 construct: made in house; host or cells: E. coli host derived from BL21, infected with T7 phage
T4 sequence (P22607 23-806 V555M): as the sequence (P22607 23-806) above, with V533M counted along it
Briefly: Kinase binding assay (Kd), FGFR3 (V555M). Put shortly:
as §1

A further test has as its target T5, FGFR2 (Homo sapiens, UniProt P21802).
T5 construct: made in house; host or cells: E. coli host derived from BL21, infected with T7 phage
Description: Kinase binding assay (Kd), FGFR2. The method in brief: as §1

Usually Kd stands for a measure of binding affinity in units of concentration. A low value points to tighter binding.

T1 sequence (P11362 22-822): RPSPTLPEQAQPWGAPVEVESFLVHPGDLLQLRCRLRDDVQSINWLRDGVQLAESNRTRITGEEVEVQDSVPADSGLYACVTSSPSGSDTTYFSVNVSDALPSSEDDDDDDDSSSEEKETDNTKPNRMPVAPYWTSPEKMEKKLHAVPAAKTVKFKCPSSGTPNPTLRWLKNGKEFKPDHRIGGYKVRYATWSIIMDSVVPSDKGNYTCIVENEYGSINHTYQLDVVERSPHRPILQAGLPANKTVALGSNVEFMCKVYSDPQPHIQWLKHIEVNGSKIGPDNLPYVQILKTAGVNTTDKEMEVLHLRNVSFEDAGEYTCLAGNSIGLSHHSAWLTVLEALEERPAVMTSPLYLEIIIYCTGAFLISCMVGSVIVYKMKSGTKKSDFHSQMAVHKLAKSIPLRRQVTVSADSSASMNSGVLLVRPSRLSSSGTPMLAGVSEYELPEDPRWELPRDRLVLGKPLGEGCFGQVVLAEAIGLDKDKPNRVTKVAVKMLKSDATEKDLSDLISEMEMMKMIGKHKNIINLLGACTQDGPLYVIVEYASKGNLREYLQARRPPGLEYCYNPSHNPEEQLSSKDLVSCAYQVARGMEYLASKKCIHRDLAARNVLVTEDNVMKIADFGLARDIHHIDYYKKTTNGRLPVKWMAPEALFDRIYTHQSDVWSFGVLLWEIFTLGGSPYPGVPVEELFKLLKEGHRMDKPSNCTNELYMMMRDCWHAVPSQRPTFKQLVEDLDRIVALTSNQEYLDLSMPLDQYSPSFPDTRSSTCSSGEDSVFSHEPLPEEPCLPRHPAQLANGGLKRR
T5 sequence (P21802 22-821): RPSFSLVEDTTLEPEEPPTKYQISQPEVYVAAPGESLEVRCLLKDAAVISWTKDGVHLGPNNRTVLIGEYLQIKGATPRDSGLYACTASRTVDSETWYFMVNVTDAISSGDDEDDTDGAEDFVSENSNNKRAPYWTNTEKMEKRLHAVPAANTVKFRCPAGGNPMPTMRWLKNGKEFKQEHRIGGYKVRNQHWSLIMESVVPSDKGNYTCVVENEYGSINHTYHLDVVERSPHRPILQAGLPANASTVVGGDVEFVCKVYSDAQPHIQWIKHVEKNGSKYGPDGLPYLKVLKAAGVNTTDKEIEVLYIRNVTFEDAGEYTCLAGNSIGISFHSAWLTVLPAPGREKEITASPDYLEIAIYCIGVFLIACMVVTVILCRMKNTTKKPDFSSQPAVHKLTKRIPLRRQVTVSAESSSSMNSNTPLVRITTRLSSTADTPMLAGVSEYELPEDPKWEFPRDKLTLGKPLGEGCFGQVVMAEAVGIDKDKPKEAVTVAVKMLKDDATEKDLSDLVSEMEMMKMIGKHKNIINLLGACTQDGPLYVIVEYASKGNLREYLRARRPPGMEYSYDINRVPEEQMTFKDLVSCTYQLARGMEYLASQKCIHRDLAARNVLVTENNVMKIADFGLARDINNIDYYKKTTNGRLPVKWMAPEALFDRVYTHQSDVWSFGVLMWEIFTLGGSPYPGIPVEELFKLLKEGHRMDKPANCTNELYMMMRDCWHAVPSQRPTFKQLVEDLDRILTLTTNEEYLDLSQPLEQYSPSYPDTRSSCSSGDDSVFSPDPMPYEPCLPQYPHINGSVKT

Regarding `CS(C)(=O)=Nc1ccc(Nc2ncc(Cl)c(-n3ccc4c(NC(=O)C5CC5)cccc43)n2)cc1` [Example 78, N-[1-[5-Chloro-2-[4-[[dimethyl(oxo)-λ^6-sulfanylidene]amino]anilino]-pyrimidin-4-yl]indol-4-yl]cyclopropanecarboxamide], the Kd was found to be 250 nM at FGFR1; 4600 nM on FGFR4; 140 nM on FGFR3; 5 nM at FGFR3 (V555M); 290 nM on FGFR2.

In the case of `CS(C)(=O)=Nc1ccc(Nc2ncc(Cl)c(-n3ccc4c(N)cccc43)n2)cc1` [Example 79, 1-[5-Chloro-2-[4-[[dimethyl(oxo)-λ^6-sulfanylidene]amino]anilino]-pyrimidin-4-yl]indol-4-amine], the Kd on FGFR1 came out at 140 nM; at FGFR4, 1000 nM; at FGFR3 it was 87 nM; on FGFR3 (V555M), 7 nM; on FGFR2 it was 140 nM.

Consider `CS(C)(=O)=Nc1ccc(Nc2ncc(Cl)c(-n3ccc4cc(NC(=O)C5CC5)ccc43)n2)cc1` [Example 80, N-[1-[5-Chloro-2-[4-[[dimethyl(oxo)-λ^6-sulfanylidene]amino]anilino]-pyrimidin-4-yl]indol-5-yl]cyclopropanecarboxamide], for which the Kd at FGFR1 came out at 740 nM; on FGFR4, 5300 nM; on FGFR3, 340 nM; at FGFR3 (V555M), 23 nM; at FGFR2 it was 680 nM.

In the case of `C=CC(=O)Nc1cccc2c1ccn2-c1nc(Nc2ccc(N3CCS(=N)(=O)CC3)cc2)ncc1Cl` [Example 81], the Kd stood at 51 nM on FGFR1; 1900 nM on FGFR4; 23 nM at FGFR3; 2 nM at FGFR3 (V555M); 62 nM at FGFR2.

In the case of `N=S1(=O)CCN(c2ccc(Nc3ncc(Cl)c(-n4ccc5c(N)cccc54)n3)cc2)CC1` [Example 82, 1-[5-Chloro-2-[4-(1-imino-1-oxo-1,4-thiazinan-4-yl)anilino]pyrimidin-4-yl]indol-4-amine], the Kd was found to be 59 nM on FGFR1; 450 nM on FGFR4; 42 nM on FGFR3; 2 nM at FGFR3 (V555M); 50 nM at FGFR2.

Consider `CCC(=O)Nc1cccc2c1ccn2-c1nc(Nc2ccc(N3CCS(=N)(=O)CC3)cc2)ncc1Cl` [Example 83, N-[1-[5-Chloro-2-[4-(1-imino-1-oxo-1,4-thiazinan-4-yl)anilino]pyrimidin-4-yl]indol-4-yl]propanamide], for which the equilibrium dissociation constant (Kd) on FGFR1 amounted to 86 nM; at FGFR4 it was 1100 nM; at FGFR3 it was 59 nM; at FGFR3 (V555M), 3 nM; at FGFR2, 79 nM.

Consider `C=CC(=O)Nc1ccc2c(ccn2-c2nc(Nc3ccc(N=S(C)(C)=O)c(F)c3)ncc2Cl)c1C` [Example 84, N-[1-[5-Chloro-2-[4-[[dimethyl(oxo)-λ^6-sulfanylidene]amino]-3-fluoro-anilino]pyrimidin-4-yl]-4-methyl-indol-5-yl]prop-2-enamide], for which the Kd at FGFR1 came to 390 nM; on FGFR4, 2300 nM; on FGFR3 it was 150 nM; on FGFR3 (V555M), 11 nM; at FGFR2 it was 330 nM.

`C=CC(=O)Nc1ccc2c(cnn2-c2nc(Nc3ccc(N=S(C)(C)=O)cc3)ncc2Cl)c1` [Example 86, N-[1-[5-Chloro-2-[4-[[dimethyl(oxo)-λ^6-sulfanylidene]amino]anilino]-pyrimidin-4-yl]indazol-5-yl]prop-2-enamide]: the Kd on FGFR1 amounted to 90 nM; at FGFR4, 240 nM; at FGFR3 it was 46 nM; on FGFR3 (V555M), 7.1 nM; at FGFR2, 63 nM.

Take `CS(C)(=O)=Nc1ccc(Nc2ncc(Cl)c(-n3ncc4cc(N)ccc43)n2)cc1` [Example 87, 1-[5-Chloro-2-[4-[[dimethyl(oxo)-λ^6-sulfanylidene]amino]anilino]-pyrimidin-4-yl]indazol-5-amine]: the dissociation constant (Kd) on FGFR1 is 160 nM; on FGFR4, 2400 nM; on FGFR3, 130 nM; at FGFR3 (V555M), 16 nM; on FGFR2, 130 nM.

(Values after patent publication US20230115945A1, “AMINOPYRIMIDINE COMPOUNDS” (TYRA BIOSCIENCES, INC., priority 2019, published 2023).)
